Test results taken from PubChem BioAssay AID1963437 (Molecular Pharmacology Branch, DTP, NCI, 2024).

Test system: OVCAR-8 complex spheroid, growth inhibition
Test: Anticancer human tumor OVCAR-8 cell line growth inhibition [Asc];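 note: spheroids exposed to agents for 7 days before readout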;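 for viability, T/C: percent viability relative to DMSO vehicle wells taken as 100%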
Conditions: for IC50: curve of first compound; for viability, T/C: stronger effect = lower value; active = viability on the fitted dose curve at most 10% of control; inactive = the rest
Outline: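 Stromal components (HUVEC and hMSC) are co-assembled with the cancer cells into multicellular spheroids. Drugs are then added singly or paired, at concentrations falling by half-log increments from a clinically achievable maximum, capped at 10 microM without known Cmax.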

O=C(c1cc(Cc2n[nH]c(=O)c3ccccc23)ccc1F)N1CCN(C(=O)C2CC2)CC1 + CCN1C(C(=O)NC23CCC(C(=O)O)(CC2)CC3)C(c2cccc(Cl)c2F)C2(C(=O)Nc3cc(Cl)ccc32)C12CCCCC2
> 10 µM: IC50 (second compound 0.00949 µM) | IC50 (second compound 0.03 µM) | IC50 (second compound 0.0949 µM) | IC50 (second compound 0.3 µM) | IC50 (second compound 0.949 µM) | IC50 (second compound 3 µM)
inactive: viability, T/C (second compound 0.00949 µM, first compound 0.0316 µM) 99.8% | viability, T/C (second compound 0.00949 µM, first compound 0.1 µM) 86% | viability, T/C (second compound 0.00949 µM, first compound 0.316 µM) 85.7% | viability, T/C (second compound 0.00949 µM, first compound 1 µM) 98.2% | viability, T/C (second compound 0.00949 µM, first compound 3.16 µM) 97.8% | viability, T/C (second compound 0.00949 µM, first compound 10 µM) 102% | viability, T/C (second compound 0.03 µM, first compound 0.0316 µM) 93.2% | viability, T/C (second compound 0.03 µM, first compound 0.1 µM) 94% | viability, T/C (second compound 0.03 µM, first compound 0.316 µM) 87.5% | viability, T/C (second compound 0.03 µM, first compound 1 µM) 100% | viability, T/C (second compound 0.03 µM, first compound 3.16 µM) 119% | viability, T/C (second compound 0.03 µM, first compound 10 µM) 102% | viability, T/C (second compound 0.0949 µM, first compound 0.0316 µM) 101% | viability, T/C (second compound 0.0949 µM, first compound 0.1 µM) 91.7% | viability, T/C (second compound 0.0949 µM, first compound 0.316 µM) 94.2% | viability, T/C (second compound 0.0949 µM, first compound 1 µM) 87.6% | viability, T/C (second compound 0.0949 µM, first compound 3.16 µM) 120% | viability, T/C (second compound 0.0949 µM, first compound 10 µM) 115% | viability, T/C (second compound 0.3 µM, first compound 0.0316 µM) 85.2% | viability, T/C (second compound 0.3 µM, first compound 0.1 µM) 85.9% | viability, T/C (second compound 0.3 µM, first compound 0.316 µM) 93.3% | viability, T/C (second compound 0.3 µM, first compound 1 µM) 91.4% | viability, T/C (second compound 0.3 µM, first compound 3.16 µM) 103% | viability, T/C (second compound 0.3 µM, first compound 10 µM) 120% | viability, T/C (second compound 0.949 µM, first compound 0.0316 µM) 99.6% | viability, T/C (second compound 0.949 µM, first compound 0.1 µM) 108% | viability, T/C (second compound 0.949 µM, first compound 0.316 µM) 105% | viability, T/C (second compound 0.949 µM, first compound 1 µM) 95.5% | viability, T/C (second compound 0.949 µM, first compound 3.16 µM) 96.3% | viability, T/C (second compound 0.949 µM, first compound 10 µM) 114% | viability, T/C (second compound 3 µM, first compound 0.0316 µM) 115% | viability, T/C (second compound 3 µM, first compound 0.1 µM) 104% | viability, T/C (second compound 3 µM, first compound 0.316 µM) 114% | viability, T/C (second compound 3 µM, first compound 1 µM) 103% | viability, T/C (second compound 3 µM, first compound 3.16 µM) 125% | viability, T/C (second compound 3 µM, first compound 10 µM) 107%

Cc1nc(N2CCC3(CC2)COC(C)C3N)c(CO)nc1Sc1ccnc(N)c1Cl (centres undefined) + CCN1C(C(=O)NC23CCC(C(=O)O)(CC2)CC3)C(c2cccc(Cl)c2F)C2(C(=O)Nc3cc(Cl)ccc32)C12CCCCC2
inactive: viability, T/C (second compound 0.00949 µM, first compound 0.00949 µM) 101% | viability, T/C (second compound 0.00949 µM, first compound 0.03 µM) 122% | viability, T/C (second compound 0.00949 µM, first compound 0.0949 µM) 152% | viability, T/C (second compound 0.00949 µM, first compound 0.3 µM) 216% | viability, T/C (second compound 0.00949 µM, first compound 0.949 µM) 263% | viability, T/C (second compound 0.00949 µM, first compound 3 µM) 209% | viability, T/C (second compound 0.03 µM, first compound 0.00949 µM) 108% | viability, T/C (second compound 0.03 µM, first compound 0.03 µM) 139% | viability, T/C (second compound 0.03 µM, first compound 0.0949 µM) 142% | viability, T/C (second compound 0.03 µM, first compound 0.3 µM) 204% | viability, T/C (second compound 0.03 µM, first compound 0.949 µM) 241% | viability, T/C (second compound 0.03 µM, first compound 3 µM) 221% | viability, T/C (second compound 0.0949 µM, first compound 0.00949 µM) 103% | viability, T/C (second compound 0.0949 µM, first compound 0.03 µM) 117% | viability, T/C (second compound 0.0949 µM, first compound 0.0949 µM) 154% | viability, T/C (second compound 0.0949 µM, first compound 0.3 µM) 200% | viability, T/C (second compound 0.0949 µM, first compound 0.949 µM) 244% | viability, T/C (second compound 0.0949 µM, first compound 3 µM) 228% | viability, T/C (second compound 0.3 µM, first compound 0.00949 µM) 115% | viability, T/C (second compound 0.3 µM, first compound 0.03 µM) 126% | viability, T/C (second compound 0.3 µM, first compound 0.0949 µM) 153% | viability, T/C (second compound 0.3 µM, first compound 0.3 µM) 221% | viability, T/C (second compound 0.3 µM, first compound 0.949 µM) 251% | viability, T/C (second compound 0.3 µM, first compound 3 µM) 232% | viability, T/C (second compound 0.949 µM, first compound 0.00949 µM) 106% | viability, T/C (second compound 0.949 µM, first compound 0.03 µM) 101% | viability, T/C (second compound 0.949 µM, first compound 0.0949 µM) 175% | viability, T/C (second compound 0.949 µM, first compound 0.3 µM) 229% | viability, T/C (second compound 0.949 µM, first compound 0.949 µM) 223% | viability, T/C (second compound 0.949 µM, first compound 3 µM) 214% | viability, T/C (second compound 3 µM, first compound 0.00949 µM) 125% | viability, T/C (second compound 3 µM, first compound 0.03 µM) 140% | viability, T/C (second compound 3 µM, first compound 0.0949 µM) 171% | viability, T/C (second compound 3 µM, first compound 0.3 µM) 214% | viability, T/C (second compound 3 µM, first compound 0.949 µM) 192% | viability, T/C (second compound 3 µM, first compound 3 µM) 169%
> 3 µM: IC50 (second compound 0.00949 µM) | IC50 (second compound 0.03 µM) | IC50 (second compound 0.0949 µM) | IC50 (second compound 0.3 µM) | IC50 (second compound 0.949 µM) | IC50 (second compound 3 µM)
